In ChEMBL document CHEMBL4028801, “A multifactorial approach to hepatobiliary transporter assessment enables improved therapeutic compound development” (Toxicol Sci, 2013):
Structures can show the parent of a compound that is named as a salt.

Tests used:
[1] = target: Bile salt export pump (Homo sapiens, UniProt O95342); experiment: Inhibition of human BSEP overexpressed in Sf9 cell membrane vesicles assessed as uptake of [3H]-taurocholate in presence of ATP measured after 15 to 20 mins by membrane vesicle transport assay; format: ADME, cell-based
Bile salt export pump, sequence (O95342 whole entry): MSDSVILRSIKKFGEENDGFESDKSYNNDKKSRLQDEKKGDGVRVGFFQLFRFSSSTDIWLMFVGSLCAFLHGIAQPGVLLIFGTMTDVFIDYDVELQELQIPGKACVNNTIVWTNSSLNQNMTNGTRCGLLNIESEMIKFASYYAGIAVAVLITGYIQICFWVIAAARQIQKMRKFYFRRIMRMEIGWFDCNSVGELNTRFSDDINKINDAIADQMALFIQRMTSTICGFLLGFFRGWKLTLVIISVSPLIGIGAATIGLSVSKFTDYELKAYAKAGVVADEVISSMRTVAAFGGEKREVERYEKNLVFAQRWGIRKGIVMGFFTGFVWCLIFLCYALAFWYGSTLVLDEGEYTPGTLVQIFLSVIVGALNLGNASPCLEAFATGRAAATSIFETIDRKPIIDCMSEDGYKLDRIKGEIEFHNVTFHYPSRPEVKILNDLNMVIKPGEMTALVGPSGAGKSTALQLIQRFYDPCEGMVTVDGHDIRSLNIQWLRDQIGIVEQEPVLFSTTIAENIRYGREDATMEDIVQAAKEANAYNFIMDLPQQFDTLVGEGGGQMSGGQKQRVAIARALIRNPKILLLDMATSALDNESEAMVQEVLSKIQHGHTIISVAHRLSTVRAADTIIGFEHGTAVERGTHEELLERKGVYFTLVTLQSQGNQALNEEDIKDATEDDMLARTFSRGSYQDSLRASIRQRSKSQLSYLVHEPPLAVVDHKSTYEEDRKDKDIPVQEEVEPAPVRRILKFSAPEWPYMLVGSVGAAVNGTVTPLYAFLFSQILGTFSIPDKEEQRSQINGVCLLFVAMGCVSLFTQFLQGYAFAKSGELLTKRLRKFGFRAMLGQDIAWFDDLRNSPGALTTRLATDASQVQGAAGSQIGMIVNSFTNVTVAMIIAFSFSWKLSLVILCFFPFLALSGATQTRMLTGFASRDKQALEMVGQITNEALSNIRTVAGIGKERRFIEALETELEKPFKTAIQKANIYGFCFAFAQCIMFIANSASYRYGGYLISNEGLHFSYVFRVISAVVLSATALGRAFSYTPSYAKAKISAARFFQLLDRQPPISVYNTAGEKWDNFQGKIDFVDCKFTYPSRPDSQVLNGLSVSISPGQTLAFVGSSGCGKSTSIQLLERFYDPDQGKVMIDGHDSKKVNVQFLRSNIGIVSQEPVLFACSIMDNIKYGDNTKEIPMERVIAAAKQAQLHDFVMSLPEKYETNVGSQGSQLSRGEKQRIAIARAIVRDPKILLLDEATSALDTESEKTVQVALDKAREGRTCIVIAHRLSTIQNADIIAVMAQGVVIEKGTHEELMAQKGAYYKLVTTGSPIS

[2] = target: ATP-binding cassette sub-family C member 2 (Homo sapiens, UniProt Q92887); experiment: Inhibition of human MRP2 overexpressed in Sf9 cell membrane vesicles assessed as uptake of [3H]-estradiol-17beta-D-glucuronide in presence of ATP and GSH measured after 20 mins by membrane vesicle transport assay
ATP-binding cassette sub-family C member 2, sequence (Q92887 whole entry): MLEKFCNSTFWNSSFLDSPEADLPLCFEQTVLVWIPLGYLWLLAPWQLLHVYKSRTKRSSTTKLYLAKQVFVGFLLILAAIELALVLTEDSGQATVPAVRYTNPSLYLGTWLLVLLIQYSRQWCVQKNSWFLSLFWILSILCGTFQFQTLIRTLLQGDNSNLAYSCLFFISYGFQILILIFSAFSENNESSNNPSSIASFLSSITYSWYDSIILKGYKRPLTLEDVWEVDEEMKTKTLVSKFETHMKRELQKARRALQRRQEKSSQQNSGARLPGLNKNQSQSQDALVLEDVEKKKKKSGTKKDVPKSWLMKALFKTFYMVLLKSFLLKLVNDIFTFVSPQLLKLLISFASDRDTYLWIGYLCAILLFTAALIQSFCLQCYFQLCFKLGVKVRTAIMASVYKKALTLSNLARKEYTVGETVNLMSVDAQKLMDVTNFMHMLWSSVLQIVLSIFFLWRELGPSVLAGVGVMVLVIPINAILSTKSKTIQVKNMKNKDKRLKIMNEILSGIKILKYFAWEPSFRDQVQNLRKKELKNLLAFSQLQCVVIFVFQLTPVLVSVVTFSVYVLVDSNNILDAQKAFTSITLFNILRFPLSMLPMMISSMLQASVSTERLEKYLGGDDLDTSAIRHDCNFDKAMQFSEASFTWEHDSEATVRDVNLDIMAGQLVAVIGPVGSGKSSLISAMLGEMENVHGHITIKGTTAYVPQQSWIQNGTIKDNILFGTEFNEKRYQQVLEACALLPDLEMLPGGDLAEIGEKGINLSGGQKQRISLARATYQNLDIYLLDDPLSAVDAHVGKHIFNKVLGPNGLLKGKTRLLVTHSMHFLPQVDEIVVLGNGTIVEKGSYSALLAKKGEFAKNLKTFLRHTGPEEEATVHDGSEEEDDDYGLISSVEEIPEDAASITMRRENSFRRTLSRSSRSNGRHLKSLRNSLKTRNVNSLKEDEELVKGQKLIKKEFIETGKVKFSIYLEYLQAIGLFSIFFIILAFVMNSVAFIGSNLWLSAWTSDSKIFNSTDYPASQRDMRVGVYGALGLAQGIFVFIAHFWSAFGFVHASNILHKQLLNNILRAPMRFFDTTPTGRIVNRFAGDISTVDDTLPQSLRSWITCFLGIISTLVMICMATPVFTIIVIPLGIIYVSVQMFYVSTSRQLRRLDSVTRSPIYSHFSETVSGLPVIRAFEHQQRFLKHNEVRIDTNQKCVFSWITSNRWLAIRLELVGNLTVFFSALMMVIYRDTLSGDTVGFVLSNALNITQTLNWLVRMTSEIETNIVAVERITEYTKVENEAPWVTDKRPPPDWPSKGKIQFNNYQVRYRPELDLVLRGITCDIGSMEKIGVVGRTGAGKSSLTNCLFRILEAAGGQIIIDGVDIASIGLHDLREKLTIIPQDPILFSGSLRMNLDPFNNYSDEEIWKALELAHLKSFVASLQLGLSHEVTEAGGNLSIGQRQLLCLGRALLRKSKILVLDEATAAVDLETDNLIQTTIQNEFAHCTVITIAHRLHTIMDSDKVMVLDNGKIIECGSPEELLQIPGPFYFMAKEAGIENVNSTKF

[3] = target: ATP-binding cassette sub-family C member 3 (Homo sapiens, UniProt O15438); experiment: Inhibition of human MRP3 overexpressed in Sf9 insect cell membrane vesicles assessed as uptake of [3H]-estradiol-17beta-D-glucuronide in presence of ATP and GSH measured after 10 mins by membrane vesicle transport assay; format: ADME, cell-based
ATP-binding cassette sub-family C member 3, sequence (O15438 whole entry): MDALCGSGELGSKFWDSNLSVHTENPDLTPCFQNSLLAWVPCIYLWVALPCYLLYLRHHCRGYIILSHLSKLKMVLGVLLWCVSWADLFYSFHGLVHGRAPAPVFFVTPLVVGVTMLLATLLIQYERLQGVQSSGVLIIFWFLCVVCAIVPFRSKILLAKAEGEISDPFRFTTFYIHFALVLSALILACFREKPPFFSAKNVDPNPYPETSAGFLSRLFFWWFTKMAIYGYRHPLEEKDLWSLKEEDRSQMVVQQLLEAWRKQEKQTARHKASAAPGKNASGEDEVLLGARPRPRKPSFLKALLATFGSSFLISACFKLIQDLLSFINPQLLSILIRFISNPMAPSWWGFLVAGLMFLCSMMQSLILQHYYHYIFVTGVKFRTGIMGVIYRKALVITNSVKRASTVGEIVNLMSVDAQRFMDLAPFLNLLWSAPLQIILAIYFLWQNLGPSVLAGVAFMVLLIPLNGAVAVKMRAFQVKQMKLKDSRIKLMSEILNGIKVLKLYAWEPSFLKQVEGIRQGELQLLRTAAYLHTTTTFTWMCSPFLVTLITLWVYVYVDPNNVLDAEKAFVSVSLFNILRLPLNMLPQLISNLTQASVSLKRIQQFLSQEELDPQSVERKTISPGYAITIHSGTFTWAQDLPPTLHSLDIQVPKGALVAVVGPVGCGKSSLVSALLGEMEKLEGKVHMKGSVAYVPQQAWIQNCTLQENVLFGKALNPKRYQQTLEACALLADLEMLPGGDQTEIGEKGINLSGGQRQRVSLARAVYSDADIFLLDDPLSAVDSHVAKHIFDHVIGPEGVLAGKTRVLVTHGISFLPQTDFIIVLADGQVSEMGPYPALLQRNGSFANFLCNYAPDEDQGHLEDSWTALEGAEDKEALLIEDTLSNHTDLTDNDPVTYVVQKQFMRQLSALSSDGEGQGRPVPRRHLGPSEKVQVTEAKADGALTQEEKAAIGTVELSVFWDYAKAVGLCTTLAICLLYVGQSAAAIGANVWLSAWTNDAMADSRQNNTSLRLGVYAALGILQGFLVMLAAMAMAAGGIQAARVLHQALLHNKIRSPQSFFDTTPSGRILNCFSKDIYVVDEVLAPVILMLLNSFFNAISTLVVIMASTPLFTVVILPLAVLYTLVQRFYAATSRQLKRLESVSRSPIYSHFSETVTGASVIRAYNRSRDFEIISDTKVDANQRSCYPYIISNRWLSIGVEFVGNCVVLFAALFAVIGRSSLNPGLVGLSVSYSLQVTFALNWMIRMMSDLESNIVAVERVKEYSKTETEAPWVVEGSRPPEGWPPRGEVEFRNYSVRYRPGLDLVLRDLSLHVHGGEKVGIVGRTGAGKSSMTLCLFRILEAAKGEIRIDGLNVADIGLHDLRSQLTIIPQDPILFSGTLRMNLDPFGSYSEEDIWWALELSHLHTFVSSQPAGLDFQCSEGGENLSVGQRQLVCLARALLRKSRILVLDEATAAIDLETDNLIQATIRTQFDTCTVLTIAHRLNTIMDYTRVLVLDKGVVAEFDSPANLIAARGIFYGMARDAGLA

[4] = target: T1, ATP-binding cassette sub-family C member 4 (Homo sapiens, UniProt O15439); experiment: Inhibition of human MRP4 overexpressed in Sf9 cell membrane vesicles assessed as uptake of [3H]-estradiol-17beta-D-glucuronide in presence of ATP and GSH measured after 20 mins by membrane vesicle transport assay; format: ADME, cell-based
T1 sequence (O15439 whole entry): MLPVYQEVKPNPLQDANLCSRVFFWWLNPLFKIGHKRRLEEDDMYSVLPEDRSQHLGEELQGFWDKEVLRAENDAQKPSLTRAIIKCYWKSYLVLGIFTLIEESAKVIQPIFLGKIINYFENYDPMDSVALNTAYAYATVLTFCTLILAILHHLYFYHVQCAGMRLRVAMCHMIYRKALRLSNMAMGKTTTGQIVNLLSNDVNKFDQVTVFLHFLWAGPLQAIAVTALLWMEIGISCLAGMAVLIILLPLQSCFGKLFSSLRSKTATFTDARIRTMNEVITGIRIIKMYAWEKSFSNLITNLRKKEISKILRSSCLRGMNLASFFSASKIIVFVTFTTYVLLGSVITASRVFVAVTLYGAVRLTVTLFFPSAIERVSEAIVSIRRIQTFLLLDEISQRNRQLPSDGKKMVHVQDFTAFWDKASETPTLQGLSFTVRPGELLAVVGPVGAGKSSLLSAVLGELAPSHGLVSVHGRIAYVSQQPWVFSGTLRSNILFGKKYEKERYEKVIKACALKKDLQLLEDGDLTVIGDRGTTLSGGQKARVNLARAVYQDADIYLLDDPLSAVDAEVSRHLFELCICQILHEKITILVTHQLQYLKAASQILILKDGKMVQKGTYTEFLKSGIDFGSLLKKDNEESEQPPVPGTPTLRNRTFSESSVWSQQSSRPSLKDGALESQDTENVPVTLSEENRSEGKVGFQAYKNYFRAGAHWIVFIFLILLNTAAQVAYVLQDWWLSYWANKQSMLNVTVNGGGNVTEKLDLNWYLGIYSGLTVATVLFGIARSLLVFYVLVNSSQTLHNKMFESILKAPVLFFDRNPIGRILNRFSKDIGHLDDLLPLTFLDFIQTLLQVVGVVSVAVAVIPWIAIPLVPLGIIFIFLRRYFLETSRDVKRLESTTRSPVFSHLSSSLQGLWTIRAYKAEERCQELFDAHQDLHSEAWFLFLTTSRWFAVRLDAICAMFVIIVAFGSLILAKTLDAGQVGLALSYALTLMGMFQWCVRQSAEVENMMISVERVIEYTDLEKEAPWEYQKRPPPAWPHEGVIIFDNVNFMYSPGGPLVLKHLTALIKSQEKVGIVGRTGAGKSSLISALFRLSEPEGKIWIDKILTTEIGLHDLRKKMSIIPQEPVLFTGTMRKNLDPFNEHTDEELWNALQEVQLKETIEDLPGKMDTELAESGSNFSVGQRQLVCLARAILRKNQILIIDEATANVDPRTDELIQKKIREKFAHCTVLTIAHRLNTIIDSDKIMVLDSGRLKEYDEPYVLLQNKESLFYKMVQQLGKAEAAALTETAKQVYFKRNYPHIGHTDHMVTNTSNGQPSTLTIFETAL

| SMILES | IC50 [1] | IC50 [2] | IC50 [3] | IC50 [4] |
| --- | --- | --- | --- | --- |
| NC(=O)CC[C@@H]1NC(=O)[C@H](Cc2ccccc2)NC(=O)[C@H](Cc2ccc(O)cc2)NC(=O)CCSSC[C@@H](C(=O)N2CCC[C@H]2C(=O)N[C@H](CCCN=C(N)N)C(=O)NCC(N)=O)NC(=O)[C@H](CC(N)=O)NC1=O [DESMOPRESSIN ACETATE] | > 133 µM | > 133 µM | > 133 µM | > 133 µM |
| CNC1(c2ccccc2Cl)CCCCC1=O (stereo not given) [KETAMINE] | > 133 µM | > 133 µM | > 133 µM | > 133 µM |
| c1cnc(N2CCN(Cc3ccc4c(c3)OCO4)CC2)nc1 [PIRIBEDIL] | > 133 µM | > 133 µM | > 133 µM | > 133 µM |
| CN1CCc2cccc3c2[C@H]1Cc1ccc(O)c(O)c1-3 [APOMORPHINE] | > 133 µM | > 133 µM | > 133 µM | > 133 µM |
| CCCCCCCCCC(=O)N[C@@H](Cc1c[nH]c2ccccc12)C(=O)N[C@H](CC(N)=O)C(=O)N[C@@H](CC(=O)O)C(=O)N[C@@H]1C(=O)NCC(=O)N[C@@H](CCCN)C(=O)N[C@@H](CC(=O)O)C(=O)N[C@H](C)C(=O)N[C@@H](CC(=O)O)C(=O)NCC(=O)N[C@H](CO)C(=O)N[C@@H]([C@H](C)CC(=O)O)C(=O)N[C@@H](CC(=O)c2ccccc2N)C(=O)O[C@@H]1C [DAPTOMYCIN] | > 133 µM | 29.1 µM | > 133 µM | > 133 µM |
| N#C[C@@H]1CCCN1C(=O)CNC12CC3CC(CC(O)(C3)C1)C2 [VILDAGLIPTIN] | > 133 µM | > 133 µM | > 133 µM | > 133 µM |
| C=C1CC[C@@]2(O)[C@H]3Cc4ccc(O)c5c4[C@@]2(CCN3CC2CC2)[C@H]1O5 | > 133 µM | > 133 µM | > 133 µM | > 133 µM |
| CC[C@H]1OC(=O)[C@H](C)[C@@H](O[C@H]2C[C@@](C)(OC)[C@@H](O)[C@H](C)O2)[C@H](C)[C@@H](O[C@@H]2O[C@H](C)C[C@H](N(C)C)[C@H]2O)[C@](C)(O)C[C@@H](C)/C(=N\OCOCCOC)[C@H](C)[C@@H](O)[C@]1(C)O [ROXITHROMYCIN] | > 133 µM | > 133 µM | > 133 µM | > 133 µM |
| c1cnc2cc3c(cc2n1)[C@@H]1CNC[C@H]3C1 | > 133 µM | > 133 µM | > 133 µM | > 133 µM |
| CN(C)CCC[C@@]1(c2ccc(F)cc2)OCc2cc(C#N)ccc21 [ESCITALOPRAM OXALATE] | > 133 µM | > 133 µM | > 133 µM | > 133 µM |
| CN(C)C(=O)Oc1cccc([N+](C)(C)C)c1 [NEOSTIGMINE] | > 133 µM | > 133 µM | > 133 µM | > 133 µM |
| O=C(O)CCNC(=O)c1ccccc1 [BETAMIPRON] | > 133 µM | > 133 µM | > 133 µM | > 133 µM |
| O=S(=O)(O)CCS [MESNA] | > 133 µM | > 133 µM | > 133 µM | > 133 µM |
| CC(C)C[C@H](CN)CC(=O)O [PREGABALIN] | > 133 µM | > 133 µM | > 133 µM | > 133 µM |
| CCOC(=O)c1ncn2c1CN(C)C(=O)c1cc(F)ccc1-2 [FLUMAZENIL] | > 133 µM | > 133 µM | > 133 µM | > 133 µM |
| OCC(CO)N[C@H]1C[C@](O)(CO)[C@@H](O)[C@H](O)[C@H]1O [VOGLIBOSE] | > 133 µM | > 133 µM | > 133 µM | > 133 µM |
| CC[C@@H](C(N)=O)N1CCCC1=O | > 133 µM | > 133 µM | > 133 µM | > 133 µM |
| CN1CCN(C(=O)O[C@H]2c3nccnc3C(=O)N2c2ccc(Cl)cn2)CC1 [ESZOPICLONE] | > 133 µM | > 133 µM | > 133 µM | > 133 µM |
| S=C=Nc1cccc2ccccc12 [1-NAPHTHYLISOTHIOCYANATE] | 69 µM | > 133 µM | > 133 µM | > 133 µM |
| CC1(C)O[C@@H]2C[C@H]3[C@@H]4CCC5=CC(=O)C=C[C@]5(C)[C@@]4(F)[C@@H](O)C[C@]3(C)[C@]2(C(=O)CO)O1 [TRIAMCINOLONE ACETONIDE] | > 133 µM | > 133 µM | > 133 µM | > 133 µM |
